Data on eight compounds can be found in US11957759B1, “Rapidly accelerated fibrosarcoma (RAF) degrading compounds and associated methods of use” (Arvinas Operations, Inc., priority 2022, dated 2024).

For one assay, the target named is T1, B-RAF V600E (Homo sapiens, UniProt P15056, V600E).
T1 construct: expressed in transfected cells; host or cells: T-Rex 293 cells (Invitrogen #R71007)
Kind of assay: Target protein degradation, assay C: T-Rex 293 cells, HA-BRAF_V600E, 384 well format. The assay is classed as cell-based. The conditions noted are these: T-Rex 293 HA-BRAF_V600E cells, 24 hours, Examples 83-269; for DC50: Assay C; for Dmax: T-REx-293, Assay C. How it is done: C. T-Rex 293 Cells (384 Well Format)
(§1) T-Rex 293 cells were purchased from Invitrogen (#R71007), and stably transfected with a pcDNA4/TO_HA-BRAF_V600E construct, using 400 ug Zeocin for selection. V600E cells are plated in DMEM media (Gibco #11965118) containing 10% FBS (Gibco #16000044), 1% penicillin-streptomycin (ThermoFisher #15140122), 1:250 zeocin (Invitrogen #R-25005), and 1 ng/mL doxycycline (Selleckchem #4163) at a density of 7,500 cells/well in 45 μl on PDL coated, black clear bottom 384 well plates (Corning #354663) and incubated at 37° C.+5% CO2 for 24 hours. The following day, PROTAC compounds in a 1:3 11 point dilution are diluted into DMEM media using an Agilent Bravo. 5 ul of PROTACs suspended in DMEM media are added to the cells, with a final assay concentration ranging from 300 nM to 5 pM in 0.5% DMSO. Plates are incubated at 37° C.+5% CO2 for 24 hours. At the end of treatment, media is aspirated, and cells are fixed in 50 uL 4% PFA (EMS #15710) in PBS++(PBS, 1 mM CaCl, 1 mM MgCl) at RT for 15 minutes. Cells are washed 2× with 60 uL PBS++ and permeabilized in 50 uL 1% Triton X-100 (Sigma #93443) in PBS++ for 5 minutes at RT. Cells are washed in PBS++ prior to blocking with 50 uL Licor blocking buffer (Licor #927-60001) for 1 hour at RT. HA-tagged BRAF was stained using 50 uL HA antibody (CST #3724) at 1:1000 in Licor blocking buffer for two hours at RT. Primary is aspirated before adding 50 ul of secondary antibody solution containing 1:1000 Hoechst (ThermoFisher #62249), 1:1000 HCS CellMask Deep Red Stain (ThermoFisher #H32721), and 1:5000 goat anti-rabbit IgG Alexa-Fluor 488 (ThermoFisher #A32731) in PBS++ for 1 hr at RT. Plates are washed 4× with 60 uL PBS++, then sealed with Adhesive Black Light Absorbing Film (VWR #89087-692) and imaged on the ThermoFisher CX7 PRO high content instrument. BRAF intensity is quantified in HCS Studio software (ThermoFisher), using a custom script, exported, analyzed using KNIME, and curve curation is performed in an ELN (Scilligence). Cell toxicity is measured via comparing number of nuclei in PROTAC treated wells to DMSO controls.
(§2) The concentration of an exemplary compound that leads to half maximal degradation (DC50) as well as the maximum degradation observed (Dmax, conventionally expressed as a percentage of control) is shown below in Table 2.

A further assay concerns the target T2, B-RAF G466V (Homo sapiens, UniProt P15056, G466V).
T2 construct: expressed in transfected cells; host or cells: T-Rex 293 cells (Invitrogen #R71007)
Kind of assay: Target protein degradation, assay D: T-Rex 293 cells, HA-BRAF_G466V, 384 well format. The assay is classed as cell-based. The following applies: T-Rex 293 HA-BRAF_G466V cells, 24 hours, Examples 83-269; for DC50: Assay D; for Dmax: T-REx-293, Assay D. The procedure:
D. T-Rex 293 Cells (384 Well Format)
as §1, with “pcDNA4/TO_HA-BRAF_G466V” for “pcDNA4/TO_HA-BRAF_V600E”, “G466V” for “V600E”
as §2

T2 sequence (P15056 whole entry G466V): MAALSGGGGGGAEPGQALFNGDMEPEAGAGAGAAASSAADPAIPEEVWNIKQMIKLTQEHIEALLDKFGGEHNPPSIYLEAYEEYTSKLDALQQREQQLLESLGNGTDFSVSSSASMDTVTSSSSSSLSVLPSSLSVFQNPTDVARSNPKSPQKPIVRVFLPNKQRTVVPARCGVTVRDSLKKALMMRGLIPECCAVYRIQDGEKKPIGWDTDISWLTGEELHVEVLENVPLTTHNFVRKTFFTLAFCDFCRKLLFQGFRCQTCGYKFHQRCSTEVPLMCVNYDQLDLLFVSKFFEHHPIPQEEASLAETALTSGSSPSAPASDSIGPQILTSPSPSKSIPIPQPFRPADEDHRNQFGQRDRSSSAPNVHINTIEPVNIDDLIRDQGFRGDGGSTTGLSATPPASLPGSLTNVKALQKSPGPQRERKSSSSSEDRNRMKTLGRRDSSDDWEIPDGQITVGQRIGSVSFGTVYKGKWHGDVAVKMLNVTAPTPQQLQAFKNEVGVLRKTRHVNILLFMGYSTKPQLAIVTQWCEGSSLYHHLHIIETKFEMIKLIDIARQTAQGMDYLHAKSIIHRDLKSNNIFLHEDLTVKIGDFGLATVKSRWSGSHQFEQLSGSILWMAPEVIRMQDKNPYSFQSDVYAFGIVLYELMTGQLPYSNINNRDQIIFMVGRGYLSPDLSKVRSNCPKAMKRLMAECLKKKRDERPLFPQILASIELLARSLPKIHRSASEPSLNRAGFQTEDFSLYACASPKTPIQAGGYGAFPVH
T1 sequence (P15056 whole entry V600E): as the sequence (P15056 whole entry G466V) above, with V466G, V600E counted along it

In the case of `N#Cc1c(NS(=O)(=O)N2CC[C@@H](F)C2)ccc(F)c1Oc1ccc2ncn(-c3cccc(C4CCN(CC5CCN(c6ccc7c(c6)CN([C@H]6CCC(=O)NC6=O)C7=O)CC5)C4)c3)c(=O)c2c1` (single isomer, unassigned) [Example 259, (3R)-N-{2-cyano-3-[(3-{3-[(3R*)-1-[(1-{2-[(3S)-2,6-dioxopiperidin-3-yl]-1-oxo-2,3-dihydro-1H-isoindol-5-yl}piperidin-4-yl)methyl]pyrrolidin-3-yl]phenyl}-4-oxo-3,4-dihydroquinazolin-6-yl)oxy]-4-fluorophenyl}-3-fluoropyrrolidine-1-sulfonamide], the DC50 fell in the range of 50 to 500 nM on B-RAF V600E and 1 to 10 nM on B-RAF G466V.

On B-RAF V600E, `N#Cc1c(NS(=O)(=O)N2CC[C@@H](F)C2)ccc(F)c1Oc1ccc2ncn(-c3ccc(N4CCC(CN5CC6(CCC(c7ccc8c(c7)CN(C7CCC(=O)NC7=O)C8=O)CC6)C5)C4)cc3)c(=O)c2c1` (single isomer, unassigned) [Example 260, (3R)-N-(2-cyano-3-{[3-(4-{3-[(7-{2-[(3R*)-2,6-dioxopiperidin-3-yl]-1-oxo-2,3-dihydro-1H-isoindol-5-yl}-2-azaspiro[3.5]nonan-2-yl)methyl]pyrrolidin-1-yl}phenyl)-4-oxo-3,4-dihydroquinazolin-6-yl]oxy}-4-fluorophenyl)-3-fluoropyrrolidine-1-sulfonamide] returned a DC50 of 50 to 500 nM and a Dmax of 35 to 70%. On B-RAF G466V, the DC50 lay within 1 to 10 nM and the Dmax is at least 70%.

As to `N#Cc1c(NS(=O)(=O)N2CC[C@@H](F)C2)ccc(F)c1Oc1ccc2ncn(-c3ccc(N4CCC(CN5CC6(CCC(c7ccc8c(c7)CN(C7CCC(=O)NC7=O)C8=O)CC6)C5)C4)cc3)c(=O)c2c1` (single isomer, unassigned) [Example 261, (3R)-N-(2-cyano-3-{[3-(4-{3-[(7-{2-[(3R*)-2,6-dioxopiperidin-3-yl]-1-oxo-2,3-dihydro-1H-isoindol-5-yl}-2-azaspiro[3.5]nonan-2-yl)methyl]pyrrolidin-1-yl}phenyl)-4-oxo-3,4-dihydroquinazolin-6-yl]oxy}-4-fluorophenyl)-3-fluoropyrrolidine-1-sulfonamide], the DC50 on B-RAF V600E fell in the range of 50 to 500 nM; at B-RAF G466V, 1 to 10 nM.

Turning to `N#Cc1c(NS(=O)(=O)N2CC[C@@H](F)C2)ccc(F)c1Oc1ccc2ncn(-c3ccc(N4CCN(CC5CCN(c6ccc7c(c6)CN(C6CCC(=O)NC6=O)C7=O)CC5)CC4)cn3)c(=O)c2c1` (stereo partly drawn) [Example 83, (3R)-N-{2-cyano-3-[(3-{5-[4-({1-[2-(2,6-dioxopiperidin-3-yl)-1-oxo-2,3-dihydro-1H-isoindol-5-yl]piperidin-4-yl}methyl)piperazin-1-yl]pyridin-2-yl}-4-oxo-3,4-dihydroquinazolin-6-yl)oxy]-4-fluorophenyl}-3-fluoropyrrolidine-1-sulfonamide], at B-RAF V600E, the DC50 was 50 to 500 nM and the Dmax lay in the range of 35 to 70%. For the same compound, at B-RAF G466V, the half-maximal degradation concentration (DC50) was at most 1 nM and the maximal degradation (Dmax) is at most 35%.

As for `C[C@H]1CN(CC2CCN(c3ccc4c(c3)CN([C@H]3CCC(=O)NC3=O)C4=O)CC2)CCN1c1ccc(-n2cnc3ccc(Oc4c(F)ccc(NS(=O)(=O)N5CC[C@@H](F)C5)c4C#N)cc3c2=O)cc1` [Example 84, (3R)-N-{2-cyano-3-[(3-(4-[(2S)-4-[(1-{2-[(3S)-2,6-dioxopiperidin-3-yl]-1-oxo-2,3-dihydro-1H-isoindol-5-yl}piperidin-4-yl)methyl]-2-methylpiperazin-1-yl]phenyl}-4-oxo-3,4-dihydroquinazolin-6-yl)oxy]-4-fluorophenyl}-3-fluoropyrrolidine-1-sulfonamide], at B-RAF V600E, the half-maximal degradation concentration (DC50) fell in the range of 5 to 50 nM and the Dmax was 35 to 70%. At B-RAF G466V, this compound came in with a DC50 of at most 1 nM and a Dmax of 35 to 70%.

At B-RAF V600E, `N#Cc1c(NS(=O)(=O)N2CC[C@@H](F)C2)ccc(F)c1Oc1ccc2ncn(-c3ccc(N4CCC(CN5CC6(C5)CN(c5ccc7c(c5)CN(C5CCC(=O)NC5=O)C7=O)C6)CC4)cc3)c(=O)c2c1` (stereo partly drawn) [Example 85, (3R)-N-{2-cyano-3-[(3-{4-[4-({6-[2-(2,6-dioxopiperidin-3-yl)-1-oxo-2,3-dihydro-1H-isoindol-5-yl]-2,6-diazaspiro[3.3]heptan-2-yl}methyl)piperidin-1-yl]phenyl}-4-oxo-3,4-dihydroquinazolin-6-yl)oxy]-4-fluorophenyl}-3-fluoropyrrolidine-1-sulfonamide] came in with a DC50 of 5 to 50 nM and a Dmax of 35 to 70%. On B-RAF G466V, this compound had a DC50 of 1 to 10 nM and a Dmax of 35 to 70%.

At B-RAF V600E, `N#Cc1c(NS(=O)(=O)N2CC[C@@H](F)C2)ccc(F)c1Oc1ccc2ncn(-c3ccc(N4CCN(CC5CCN(c6ccc7c(c6)CN(C6CCC(=O)NC6=O)C7=O)CC5)CC4)c(F)c3)c(=O)c2c1` (stereo partly drawn) [Example 86, (3R)-N-{2-cyano-3-[(3-(4-[4-({1-[2-(2,6-dioxopiperidin-3-yl)-1-oxo-2,3-dihydro-1H-isoindol-5-yl]piperidin-4-yl}methyl)piperazin-1-yl]-3-fluorophenyl}-4-oxo-3,4-dihydroquinazolin-6-yl)oxy]-4-fluorophenyl}-3-fluoropyrrolidine-1-sulfonamide] showed a DC50 of 5 to 50 nM and a maximal degradation (Dmax) of 35 to 70%. At B-RAF G466V, the DC50 was at most 1 nM and the greatest degradation seen (Dmax) is at most 35%.

Consider `N#Cc1c(NS(=O)(=O)N2CC[C@@H](F)C2)ccc(F)c1Oc1ccc2ncn(-c3ccc(N4CCN(CC5CCN(c6ccc7c(c6)CN(C6CCC(=O)NC6=O)C7=O)CC5)CC4)cc3F)c(=O)c2c1` (stereo partly drawn) [Example 87, (3R)-N-{2-cyano-3-[(3-{4-[4-({1-[2-(2,6-dioxopiperidin-3-yl)-1-oxo-2,3-dihydro-1H-isoindol-5-yl]piperidin-4-yl}methyl)piperazin-1-yl]-2-fluorophenyl}-4-oxo-3,4-dihydroquinazolin-6-yl)oxy]-4-fluorophenyl}-3-fluoropyrrolidine-1-sulfonamide], for which the figures for the DC50 on B-RAF V600E and at B-RAF G466V were above 500 nM and above 30 nM, respectively.
